{
  "source": "ChEMBL document CHEMBL1149001",
  "about": "“Phebalosin from the bark of Micromelum minutum” (J Nat Prod, 1986)",
  "key": {"[1]": {"assay": "Cytotoxicity against human 9KB cells", "assay_type": "functional", "conditions": "read-out: ED50 (the source's name)"}, "[2]": {"test_system": "Agrobacterium tumefaciens", "assay": "Antitumor activity against Agrobacterium tumefaciens-induced crown gall tumors assessed as inhibition of tumor development in potato by crown gall tumor potato disk test", "assay_type": "functional", "set-up": "scale not given: the % may be the effect or the level left"}, "[3]": {"test_system": "Artemia", "assay": "Toxicity in brine shrimp", "assay_type": "organism-based", "conditions": "in vivo"}, "[4]": {"assay": "Cytotoxicity against mouse 9PS cells", "assay_type": "functional", "conditions": "read-out: ED50 (the source's name)"}},
  "data": [
    {"molecule": "C=C(C)[C@H]1O[C@@H]1c1c(OC)ccc2ccc(=O)oc12", "note": "[PHEBALOSIN]", "values": [
      {"measurement": "EC50", "setting": "[1]", "result": "> 20", "unit": "µg/mL"},
      {"measurement": "Activity", "setting": "[2]", "result": -70, "unit": "%"},
      {"measurement": "LC50", "setting": "[3]", "result": 47, "unit": "ppm"},
      {"measurement": "EC50", "setting": "[4]", "result": 27, "unit": "µg/mL"}
    ]}
  ]
}
